Where no end group is shown, it is not given here.
Columns and labels:
[1] = system: Rat CC14 liver damage model; test: Rat CC14 liver damage model (chronic liver fibrosis); assay type: in vivo, SD rat; set-up: Liver parameters: unit not given here
Method: To evaluate the protective effect of peptide SEQ ID NO:1 on liver damage, we used chronic liver fibrosis model (rat CC14 model) for efficacy evaluation.
Rat CC14 liver damage model
(1) Control group: saline, sc, 2 ml/kg, 10 rats
(2) model group: 40% CC14, sc, 2 ml/kg, 17 rats
(3) Gan-li-xin group: 25 mg/kg, iv, 10 ml/kg, 15 rats
(4) Prevention, high dose group: 50 μg peptide SEQ ID NO:1/kg, iv, 10 ml/kg, 17 rats
(5) Prevention, low dose group: 10 μg peptide SEQ ID NO:1/kg, iv, 10 ml/kg, 17 rats
(6) Treatment, high dose group: 100 μg peptide SEQ ID NO:1/kg, iv, 10 ml/kg, 17 rats
(7) Treatment, high dose group: 20 μg peptide SEQ ID NO:1/kg, iv, 10 ml/kg, 17 rats
Except for control group, inject 40% CC14 subcutaneously twice (Tuesday, and Friday) every week in Group (2) to (6), drug volume (0.2 ml/100 g, the first time 0.5 ml/100 g). CC14 Model construction is 6 weeks. Parallel to the model construction, inject intravenously peptide SEQ ID NO:1 at 50 μg/kg and 10 μg/kg in group (4) and (5), respectively, once a day for 6 weeks. For Group (3), (6), and (7), starting from week 5, inject Gan-li-xin 25 mg/kg, peptide SEQ ID NO:1 at 100 μg/kg and 20 μg/kg, respectively, once a day, continuously for 2 weeks.
All rats were weighed once a week during model construction and drug injection. According to weight, the dose of drugs is adjusted. 24 hours after the last time of CC14 injection, liver weight parameters were examined.
Blood was extracted from femoral artery and serum was separated. The following parameters were examined: serum alanine aminotransferase (ALT), aspartate aminotransferase (AST), Bilirubin (TB), Alkaline phosphatase (ALP), total protein (TP), albumin (ALB), globulin (G), albumin/globulin ratio (A/G), glucose (GLU), total cholesterol (TCH), triglyceride (TG).
Liver homogenate: to examine cholesterol (TCH), triglyceride (TG), alanine aminotransferase (ALT), and aspartate aminotransferase (AST).
[…], dry at 110 C, examine Hydroxyproline (HPA).
Part of the liver is fixed in formalin for histology examination.

liver cancer (H22) = test: Xenograph liver cancer nude mice model (H22); assay type: in vivo; settings: H22, 1 mg/kg
Method: (§1) Experimental animals: Female BALB/cA nude mice, age 35-40 days, weight 18-22 g, provided by Shanghai Silaike Experimental Animal Co. Ltd., certificate number: SOCK (Shanghai) 2007-0005.
(§2) The tumor of xenograph nude mice grew to 100˜300 mm^3. Tumor mice were divided into different groups for drug testing. In the experiment below, there were 12 nude mice in negative control group, and 6 nude mice in the group with tested drug. Tumor diameter was measured three times each week, and mice weight was measured at the same time.
(§3) T/C (relative tumor inhibition rate) % was calculated as below: • (1) tumor volume, TV, calculated as below: TV=½×a×b^2 • A and b are length and width. • (2) relative tumor volume, RTV, calculated as below: RTV=TVt/TV0. • TV0 ? is tumor volume at the beginning of drug use (d0), TVt is tumor volume at later time point. • (3) relative tumor inhibition rate T/C (%), calculate as below:
(§4) [formula] TRTV: treatment group RTV; CRTV: negative control RTV

[2] = system: human liver cancer BEL-7402; test: Human liver cancer BEL-7402 xenograph nude mice; assay type: in vivo; settings: for T/C(%) relative tumor inhibition rate: 6 times a week, 3 weeks
Method: as §1, §2, §3, §4
[…] Docetaxol was positive control, at dosing of 20 mg/kg, once a week. Negative control was given saline solution. The xenograph nude mice were treated for 3 weeks.

[3] = system: human stomach cancer SGC-7901; test: Human stomach cancer SGC-7901 xenograph nude mice; assay type: in vivo; settings: 0.125 mg/kg IV, 6 times a week, 3 weeks
Method: as §1, §2, §3, §4
Peptide SEQ ID No:1 was given through tail vain (IV), at dosing of 1 mg/kg, 0.5 mg/kg, 0.25 mg/kg, 0.125 mg/kg, and 0.0625 mg/kg, 6 times a week. 5-FU was positive control, at dosing of 25 mg/kg, once a week. Negative control was given saline solution. The xenograph nude mice were treated for 3 weeks.

[4] = Prevention, High dose 50 μg/kg iv, once a day for 6 weeks
[5] = Prevention, low dose 10 μg/kg iv, once a day for 6 weeks
[6] = Treatment, High dose 100 μg/kg iv, once a day for 2 weeks from week 5
[7] = Treatment, low dose 20 μg/kg iv, once a day for 2 weeks from week 5

SKVTKKYHEVLQLRPKTGVRGLHKSLTDVALEHHEECDCVCRGSTGG-OH (cysteines drawn unpaired) [Peptide SEQ ID NO:1]
ALB (albumin), serum [1, 4]: 20.8 ± 2.0 g/L
ALP (alkaline phosphatase), serum [1, 4]: 266.3 ± 85.7 IU/L
ALT (alanine aminotransferase), serum [1, 4]: 75 ± 29.4 IU/L
AST (aspartate aminotransferase), serum [1, 4]: 236.8 ± 27.2 IU/L
Bilirubin, serum [1, 4]: 3.3 ± 0.1 µmol/L
GLU (glucose), serum [1, 4]: 6.5 ± 0.9 mmol/L
Liver parameters [1, 4]: 4.3 ± 0.4
Liver weight [1, 4]: 12.1 ± 2.5 g
TCH (total cholesterol), serum [1, 4]: 1.9 ± 0.3 mmol/L
TG (triglyceride), serum [1, 4]: 0.6 ± 0.1 mmol/L
TP (total protein), serum [1, 4]: 68.3 ± 4.1 g/L
hydroxyproline amount in rat liver [1, 4]: 0.216 ± 0.062 ug/mg wet weight
ALB (albumin), serum [1, 5]: 18.8 ± 2.4 g/L
ALP (alkaline phosphatase), serum [1, 5]: 304.3 ± 90.4 IU/L
ALT (alanine aminotransferase), serum [1, 5]: 80.6 ± 21.3 IU/L
AST (aspartate aminotransferase), serum [1, 5]: 248.8 ± 38.3 IU/L
Bilirubin, serum [1, 5]: 3.3 ± 0.5 µmol/L
GLU (glucose), serum [1, 5]: 6.2 ± 0.7 mmol/L
Liver parameters [1, 5]: 4.1 ± 0.4
Liver weight [1, 5]: 11.3 ± 2.5 g
TCH (total cholesterol), serum [1, 5]: 1.6 ± 0.3 mmol/L
TG (triglyceride), serum [1, 5]: 0.6 ± 0.2 mmol/L
TP (total protein), serum [1, 5]: 66.4 ± 4.6 g/L
hydroxyproline amount in rat liver [1, 5]: 0.192 ± 0.045 ug/mg wet weight
ALB (albumin), serum [1, 6]: 19.7 ± 3.7 g/L
ALP (alkaline phosphatase), serum [1, 6]: 216.5 ± 91.0 IU/L
ALT (alanine aminotransferase), serum [1, 6]: 69.8 ± 31.3 IU/L
AST (aspartate aminotransferase), serum [1, 6]: 219.6 ± 56.7 IU/L
Bilirubin, serum [1, 6]: 2.9 ± 0.4 µmol/L
GLU (glucose), serum [1, 6]: 6.3 ± 1.0 mmol/L
Liver parameters [1, 6]: 4.0 ± 0.5
Liver weight [1, 6]: 10.1 ± 3.2 g
TCH (total cholesterol), serum [1, 6]: 2.1 ± 0.8 mmol/L
TG (triglyceride), serum [1, 6]: 0.5 ± 0.2 mmol/L
TP (total protein), serum [1, 6]: 70.4 ± 4.4 g/L
hydroxyproline amount in rat liver [1, 6]: 0.165 ± 0.038 ug/mg wet weight
ALB (albumin), serum [1, 7]: 18.8 ± 2.5 g/L
ALP (alkaline phosphatase), serum [1, 7]: 357.1 ± 120.7 IU/L
ALT (alanine aminotransferase), serum [1, 7]: 90.9 ± 37.3 IU/L
AST (aspartate aminotransferase), serum [1, 7]: 260.0 ± 73.1 IU/L
Bilirubin, serum [1, 7]: 3.3 ± 0.8 µmol/L
GLU (glucose), serum [1, 7]: 6.1 ± 0.9 mmol/L
Liver parameters [1, 7]: 4.4 ± 0.8
Liver weight [1, 7]: 12.9 ± 4.7 g
TCH (total cholesterol), serum [1, 7]: 1.6 ± 0.5 mmol/L
TG (triglyceride), serum [1, 7]: 0.5 ± 0.2 mmol/L
TP (total protein), serum [1, 7]: 69.1 ± 6.1 g/L
hydroxyproline amount in rat liver [1, 7]: 0.222 ± 0.048 ug/mg wet weight
steatosis and fat cavities in liver cells (histology) ([1]; prevention high dose group, 3 cases): 50-60%
steatosis and fat cavities in liver cells (histology) ([1]; prevention high dose group, 5 cases): 60-80%
steatosis and fat cavities in liver cells (histology) ([1]; prevention low dose group, all cases): 60-80%
liver damage caused by CC14 in rat (summary) ([1]; serum biochemical parameters, liver hydroxyproline amount, liver pathological features): can improve liver damage caused by CC14 in rat
steatosis and fat cavities in liver cells (histology) ([1]; treatment high dose group, 2 cases): Over 80%
steatosis and fat cavities in liver cells (histology) ([1]; treatment high dose group, 2 cases with less steatosis): 50-60%
steatosis and fat cavities in liver cells (histology) ([1]; treatment high dose group, 4 cases with even less steatosis): < 30%
inhibition rate, tumor (liver cancer (H22)): 67.8%
T/C(%) relative tumor inhibition rate ([2]; 0.0625 mg/kg IV): 58.56%
T/C(%) relative tumor inhibition rate ([2]; 0.125 mg/kg IV): 62.10%
T/C(%) relative tumor inhibition rate ([2]; 0.25 mg/kg IV): 69.06%
T/C(%) relative tumor inhibition rate ([2]; 0.5 mg/kg IV): 64.90%
inhibition, tumor ([2]; BEL-7402, 1 mg/kg): 39.7%
T/C(%) relative tumor inhibition rate [3]: 47.66%
